Results as given in PubChem BioAssay AID1996.
≈ marks a conversion by molar mass, not a printed value.

conditions: buffer; pH 7.4; 200.0 µM

SMILES | solubility kinetic [µg/mL]
O=S(=O)(c1ccc(Cl)nc1)N1CCN(c2ncccn2)CC1 | 1 (≈ 2.94 µM)
COc1ccc(CC(=O)NCc2ccccc2)cc1 | 22.6 (≈ 88.5 µM)
C=CCc1cccc(CNc2cnc3ccccc3c2)c1O | < 0.3
C=CCOC(=O)C1=C(C)NC(=O)NC1c1ccc2c(c1)OCO2 (stereo not given) | 43.4 (≈ 137 µM)
Cc1nc(C)c(Oc2cccc(C(F)(F)F)c2)c(=O)[nH]1 | 38.2 (≈ 134 µM)
O=C(Nc1cccc2ccccc12)OCc1cncs1 | > 42.6
CCOC(=O)COc1nc2c(c(-c3ccco3)c1C#N)CCc1ccccc1-2 | 1.5 (≈ 4.01 µM)
CC(C)(C)c1ccc(S(=O)(=O)N2CCN(C3CCCC3)CC2)cc1 | < 0.4
Cc1ccc(CCS(=O)(=O)c2ccc(C(C)(C)C)cc2)cn1 | > 47.6
CCCCN(C)Cc1c(C)[nH]c2ccccc2c1=O | > 38.8
CC(C)(CO)Nc1ncnc2onc(-c3ccc(F)cc3)c12 | > 45.3
COc1ccc(C(=O)Nc2cc(OC)c(Cl)cc2OC)cc1 | < 0.7
O=C(Cc1ccc([N+](=O)[O-])cc1)NCc1ccccn1 | > 40.7
N/C(CS(=O)(=O)c1ccc(F)cc1)=N\O | > 34.8
COc1ccc(C)cc1NC(=O)NCc1ccccc1F | 2 (≈ 6.94 µM)
O=C1CC(C(=O)N2CCCc3ccccc32)CN1c1ccc(Cl)cc1 (stereo not given) | 46.2 (≈ 130 µM)
C=CCSc1nc2sc3c(c2c(=O)n1CC)CCC3 | 0.8 (≈ 2.74 µM)
COc1ccc(CC(=O)N/N=C/c2cccs2)cc1OC | > 45.7
CC(C)C(NC(=O)c1ccccc1NC(=O)C(C)(C)C)C(=O)N1CCOCC1 (stereo not given) | 37 (≈ 95 µM)
Cc1ccc(C(=O)C[n+]2cccc(C(N)=O)c2)cc1.[Br-] | > 50.3
COc1ccc(CNC(=O)CCc2c[nH]c3ccccc23)cc1 | 24.6 (≈ 79.8 µM)
COc1cc(OC)c(S(=O)(=O)NC(C)C)cc1C(=O)O | > 45.5
Cc1cc(C)n2nc(SCC(=O)N3CCN(c4ccccc4)CC3)nc2n1 | > 57.4
Nc1nc(Nc2ccccc2F)nc(N2CCOCC2)c1[N+](=O)[O-] | 8.2 (≈ 24.5 µM)

SMILES | solubility kinetic [µg/mL]
CCn1cc(C(=O)N2CCCCC2)c2ccccc21 | > 38.5
Fc1ccccc1NC(=S)Nc1ccc(CN2CCOCC2)cc1 | 49.4 (≈ 143 µM)
CCCCN1C(=O)C2(OCCCO2)c2cccc(C)c21 | 25.1 (≈ 91.2 µM)
CN(C)Cc1c(O)ccc2c1O/C(=C\C=C\c1ccccc1)C2=O | 46.8 (≈ 146 µM)
O=C(NCCNC(=O)c1cc(Cl)ccc1Cl)c1ccco1 | 46.6 (≈ 142 µM)
O=[N+]([O-])c1ccc(CN2CCCCCC2)cc1 | > 35.1
CN(C)C(=O)COc1ncnc2sc(-c3ccccc3)cc12 | 13.9 (≈ 44.4 µM)
CCOC(=O)c1ccc2[nH]c3c(c2c1)CCCC3O (stereo not given) | > 38.9
COP(=O)(OC)C(NC(C)=O)C(Cl)(Cl)Cl (stereo not given) | > 44.8
COCC(=O)OC/C(O)=C(\C#N)c1nc2ccccc2[nH]1 | > 43.1
O=C(COC(=O)c1c(F)cccc1F)Nc1ccc(N2CCCCC2)cc1 | 5.2 (≈ 13.9 µM)
CC(C)c1ccccc1NC(=S)NC1CCCCC1 | > 41.5
O=C1CCC/C1=C\Nc1ccc(Cl)c([N+](=O)[O-])c1 | 7.2 (≈ 27 µM)
CC(=NCc1ccco1)c1c(O)n(-c2ccccc2C)c(=O)[nH]c1=O | > 50.9
Cc1ccccc1-c1nc2sc(C)c(C)c2c(=O)o1 | < 0.6
CCCCc1ccc(NC(=S)N2CCN(c3ccccn3)CC2)cc1 | 0.8 (≈ 2.26 µM)
O=C(Cc1ccccc1F)Nc1cccc(S(=O)(=O)N2CCOCC2)c1 | > 56.8
COc1ccccc1CNC(=O)COc1ccccc1C | 38.4 (≈ 135 µM)
Cc1cnc(C(=O)OCC(=O)NCc2cccc(Cl)c2)cn1 | > 48
O=S(=O)(c1ccc(F)cc1)n1cnc2ccccc21 | 28.4 (≈ 103 µM)
CN(CCOc1ccccc1)CC(O)COc1ccccc1 (stereo not given) | 28.5 (≈ 94.6 µM)
O/N=C/c1cc2ccccc2n1Cc1ccccc1F | 0.5 (≈ 1.86 µM)
COc1ccc(NC(=O)c2ccc(S(=O)(=O)N3CC(C)OC(C)C3)cc2)cc1 (stereo not given) | 7.8 (≈ 19.3 µM)
O=C(NCCc1ccccn1)c1ccc(OC(F)F)cc1 | > 43.8

SMILES | solubility kinetic [µg/mL]
Cc1ccc2cccc(OCC(=O)N3CC(C)CC(C)C3)c2n1 (stereo not given) | 46.2 (≈ 148 µM)
O=C(c1ccc2c(c1)OCO2)N1CCc2ccccc21 | 34.9 (≈ 131 µM)
CC1CCCC(NC(=O)COC(=O)COc2ccc(Br)cc2)C1C (stereo not given) | 11.6 (≈ 29.1 µM)
CC1C(=O)N2CCCc3cc(NS(=O)(=O)c4ccc(F)cc4)cc1c32 (stereo not given) | > 54.1
COCCNc1nc(N)c([N+](=O)[O-])c(NC2CCCCC2)n1 | 7.2 (≈ 23.2 µM)
CCC(CC)NC(=O)Cc1ccc(F)cc1 | > 33.5
CN(Cc1nc(-c2ccccc2)no1)C(=O)c1ccco1 | > 42.5
Cc1ccc(C(=O)NCCCNC(=O)c2ccccc2F)cn1 | 44.1 (≈ 140 µM)
COc1ccc(S(=O)(=O)Nc2cccc(F)c2)cc1C | > 44.3
CCCC(=O)N1CCC(Cc2ccccc2)CC1 | > 36.8
Cc1ccc(CNC(=O)C(C)C2Sc3ccccc3NC2=O)cc1 (stereo not given) | 1.6 (≈ 4.7 µM)
CCOC(=O)C1CCN(Cc2cc(Cl)c3ccccc3c2O)CC1 | 6.2 (≈ 17.8 µM)
O=C(CSCc1ccc(Cl)cc1Cl)Nc1ccc(O)cc1C(=O)O | > 57.9
Cc1c(C=O)c2ccccc2n1CCOc1ccccc1 | 6.2 (≈ 22.2 µM)
O=C(NC1CCCCC1)c1ccc(-c2ccccc2[N+](=O)[O-])o1 | 2.9 (≈ 9.23 µM)
CCOC(=O)C1CCN(CC(=O)N2CCc3ccccc32)CC1 | > 47.5
CN(Cc1ccccc1)C(=O)c1ccco1 | 30.3 (≈ 141 µM)
CCOC(=O)C1(CC2CC2)CCN(C(=O)c2cccnc2C)CC1 | > 49.6
CCN(CC)S(=O)(=O)c1cccc(-c2csc(C)n2)c1 | 37.8 (≈ 122 µM)
CCc1ccc(NC(=O)COC(=O)CC2CCCC2)cc1 | 26 (≈ 89.8 µM)
COc1ccc(NC(=O)CCC(=O)c2cc(C)sc2C)cc1 | 6.3 (≈ 19.8 µM)
O=C(NCC1CCCN(C2Cc3ccccc3C2)C1)c1cccs1 (stereo not given) | 40.1 (≈ 118 µM)
O=[N+]([O-])c1ccc(OCC2CC(c3ccccc3)=NO2)cc1 (stereo not given) | < 0.3
COC(=O)c1cccc(NC(=O)CN2C(=O)c3ccccc3C2=O)c1 | 21.3 (≈ 63 µM)

SMILES | solubility kinetic [µg/mL]
CC(=O)Nc1ccc(S(=O)(=O)N2CCSC2)cc1 | 29.8 (≈ 104 µM)
Cc1ccc(C)c(OCC(=O)Nc2ccncc2)c1 | 37 (≈ 144 µM)
Cc1[nH]c(=O)[nH]c(=O)c1S(=O)(=O)Nc1ccc(F)c(Cl)c1 | > 50.1
CC1(C)CC(=O)C=C(NCc2cccc(C(F)(F)F)c2)C1 | > 44.6
NC(=O)NC(=O)COC(=O)c1ccc(OC(F)F)cc1 | 9.9 (≈ 34.4 µM)
COc1ccc(C(=O)NCc2ccc3c(c2)OCO3)c(OC)c1 | > 47.3
CCCOc1cccc(C(=O)NCCNC(=O)c2ccco2)c1 | > 47.5
N#Cc1ccccc1NC(=O)CN1CC=C(c2ccccc2)CC1 | 15.7 (≈ 49.5 µM)
CC1CCN(C(=O)CCN2C(=O)C3C4C=CC(C4)C3C2=O)CC1 (stereo not given) | > 47.5
COc1ccc(NC(=O)c2c(N)no[n+]2[O-])c(OC)c1 | 1.5 (≈ 5.35 µM)
COc1ccc([N+](=O)[O-])cc1NC(=O)C1CCCNC1=O (stereo not given) | 19.1 (≈ 65.1 µM)
Cc1ccc(S(=O)(=O)NCCCN2CCCC2)cc1 | > 42.4
COc1cc(CCC(=O)Nc2nccs2)cc(OC)c1OC | > 48.4
O=C(O)C(=O)O.c1ccc2c(CCNC3CCCCC3)c[nH]c2c1 | > 49.9
CC(=O)SC1CC(=O)N(c2ccc(C(C)(C)C)cc2)C1=O (stereo not given) | 5.7 (≈ 18.7 µM)
Cc1nc2cc(N)ccc2n1C1CCCCC1.Cl | > 45.3
CCCN1CCN(S(=O)(=O)c2ccc3c(c2)OCCO3)CC1 | > 49
O=C(Nc1ccc(S(=O)(=O)N2CCOCC2)cc1)c1ccccc1 | > 52
CC(C)(C)c1ccc(C(=O)NC2CCS(=O)(=O)C2)cc1 (stereo not given) | > 44.3
COc1cc(C(=O)Nc2nc(C)cc(C)n2)cc(OC)c1OC | 45.4 (≈ 143 µM)
CNC(=S)NC1CC2CCCC(C1)N2Cc1ccc(C)cc1 (stereo not given) | 45.9 (≈ 145 µM)
COc1ccc(C(=O)NCCCNC(=O)c2ccc(C)nc2)cc1 | > 49.1
CCC(CO)NCc1ccccc1OC(C)C.Cl (stereo not given) | > 41.1
Cc1ccccc1-c1nc(S(=O)(=O)c2ccccc2)c(N2CCCC2)o1 | 10.1 (≈ 27.4 µM)

SMILES | solubility kinetic [µg/mL]
O=C(Nc1cc(C(=O)N2CCN(c3ccccc3)CC2)ccc1Cl)c1cccs1 | 4.8 (≈ 11.3 µM)
COCC(=O)Nc1ccc(OC)c(Cl)c1 | 33.8 (≈ 147 µM)
COC(=O)c1cc(C(=O)NC(C)C2CC3CCC2C3)cc([N+](=O)[O-])c1 (stereo not given) | 11 (≈ 31.8 µM)
O=c1[nH]c2ccc(NS(=O)(=O)c3ccc(F)c(Cl)c3)cc2[nH]1 | 7.5 (≈ 21.9 µM)
CC(C)(C)c1cc(NS(=O)(=O)c2cccs2)no1 | 30.8 (≈ 108 µM)
CSCCC(NC(=O)c1ccccc1)C(=O)OCC(=O)NCc1ccco1 (stereo not given) | > 58.6
O=C(COC(=O)c1ccccn1)NC(=O)c1ccccc1 | 35 (≈ 123 µM)
COCCNC(=O)COCc1cc(-c2ccc3c(c2)OCO3)on1 | > 50.1
O=C(COC(=O)[C@@H]1CCCN1C(=O)c1cccs1)Nc1cccc([N+](=O)[O-])c1 | 2.8 (≈ 6.94 µM)
N#Cc1c(Nc2ccccc2Cl)s[nH]c1=O | > 37.8
COc1ccccc1C(=O)NCCC(=O)N1CCCC(C(F)(F)F)C1 (stereo not given) | 52.3 (≈ 146 µM)
O=C(N/C(=C\c1ccco1)C(=O)N1CCCC(CO)C1)c1ccccc1 (stereo not given) | > 53.2
O=S(=O)(c1ccc2ccccc2c1)N1CCNCC1 | 32.7 (≈ 118 µM)
COCc1c(C(=O)OCC(=O)NCc2ccco2)oc2ccccc12 | 48 (≈ 140 µM)
CCNC(=S)N1CCC(C(N)=O)CC1 | > 32.3
Cc1cc(NC(=O)Cc2ccc(Br)cc2)no1 | 1.8 (≈ 6.1 µM)
COc1cccc(NC(=S)N2c3ccccc3CC2C)c1 (stereo not given) | 20.3 (≈ 68 µM)
Cc1ccc2cc(C#N)c(N3CCN(C(=O)c4ccccc4)CC3)nc2c1 | 4.1 (≈ 11.5 µM)
NS(=O)(=O)c1ccc(F)c(C(=O)O)c1 | > 32.9
O=C(c1ccncc1)N1CCN(S(=O)(=O)c2ccccc2F)CC1 | > 52.4
Cc1csc(=O)n1CCC(=O)OCc1nnc(-c2ccccc2Cl)o1 | > 57
Cn1nc(-c2ccc(Cl)cc2)cc1NC(=O)CCCC(=O)O | > 48.3
CC(C)c1ccc(NC(=O)CC2Oc3ccccc3NC2=O)cc1 (stereo not given) | 1.3 (≈ 4.01 µM)
O=c1[nH]c(=S)n(C2CC2)c(O)c1C=NCCN1CCOCC1 | > 48.7
